Experimental data reported in PubChem BioAssay (NCI).
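Protocol summary: plate cells (96-well), add compound at 5 concentrations, incubate 48 h, interpolate endpoints linearly. At the GI50, growth is halved. Definition used: TGI = concentration required for complete inhibition of growth.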

Key:
Assay in all cases: growth of human tumour cells (NCI), 48 h
A549 NSCLC = test system: A549 NSCLC
EKVX NSCLC = test system: EKVX NSCLC
HCC-2998 colon = test system: HCC-2998 colon
HOP-92 NSCLC = test system: HOP-92 NSCLC
HS 578T breast = test system: HS 578T breast
SN12C renal = test system: SN12C renal
SW-620 colon = test system: SW-620 colon
UO-31 renal = test system: UO-31 renal

SMILES | GI50 (A549 NSCLC) | TGI (A549 NSCLC) | GI50 (EKVX NSCLC) | TGI (EKVX NSCLC) | GI50 (HCC-2998 colon) | TGI (HCC-2998 colon) | GI50 (HOP-92 NSCLC) | TGI (HOP-92 NSCLC) | GI50 (HS 578T breast) | TGI (HS 578T breast) | GI50 (SN12C renal) | TGI (SN12C renal) | GI50 (SW-620 colon) | TGI (SW-620 colon) | GI50 (UO-31 renal) | TGI (UO-31 renal)
NCCCCCCCn1c2c(c3ccccc3c1=O)C(=O)c1ccccc1-2 | 3.27 µM | 18.3 µM | 10 µM | 21.7 µM | 2.69 µM | 7.56 µM | 0.808 µM | 2.44 µM | 1.8 µM | 4.31 µM | 1.94 µM | 5.84 µM | 1.14 µM | 2.42 µM | 1.29 µM | 2.73 µM
Oc1ccc(-c2nc3ccccc3s2)cc1CN(Cc1ccccn1)Cc1ccccn1 | 0.833 µM | 18.5 µM | 1.2 µM | 14.9 µM | 3.23 µM | 17 µM | 4.19 µM | 36.7 µM | 4.66 µM | 39.4 µM | 1.7 µM | 14.4 µM | 1.06 µM | 14.7 µM | 0.0834 µM | 2.49 µM
Nc1nc2c(ncn2C2C=CC(CO)C2)c(=O)[nH]1 (configuration not stated) |  | > 100 µM |  | > 100 µM |  | > 100 µM |  | > 100 µM |  | > 100 µM |  | > 100 µM |  | > 100 µM |  | > 100 µM
O=c1cc(-c2cccc3c2Sc2ccccc2S3)oc(N2CCOCC2)c1 | 10.4 µM | 26.7 µM | 10.2 µM | 25 µM | 11.6 µM | 25.8 µM | 6.91 µM | 21.9 µM | 3.08 µM | 19.5 µM | 6.17 µM | 21.8 µM | 12.3 µM | 26.8 µM | 1.79 µM | 15.8 µM
COc1cccc(NC(=O)c2sc3nc(C)c(C(O)c4ccccc4)cc3c2N)c1 (configuration not stated) | 0.402 µM | 21 µM | 0.76 µM | 34.8 µM | 0.359 µM | 4.05 µM | 4.21 µM | 26.9 µM | 0.222 µM | 3.21 µM | 0.421 µM | 17.6 µM | 0.228 µM | 27.1 µM | 0.85 µM | 18.9 µM
CN(Cc1ccccc1)c1ccc(CO)c(Cl)c1 | 4.74 µM | 32.5 µM | 22 µM | 98.8 µM | 13 µM | 51.9 µM | 3.9 µM | 37.4 µM | 35.2 µM | > 100 µM | 31.8 µM | > 100 µM | 7.98 µM | > 100 µM | 15 µM | > 100 µM
Oc1ccc(C(c2ccc(O)cc2)c2ccc(O)cc2)cc1 |  | > 100 µM |  | 46.8 µM |  | 40 µM |  | 60.5 µM |  | 56.1 µM |  | 43.9 µM |  | 88.1 µM |  | 44.6 µM
Cc1csc(/C=C/C(=O)c2nnn(-c3ccnc4c(C(F)(F)F)cccc34)c2C)c1 | 39.7 µM | > 100 µM | 69.3 µM | > 100 µM | 43.7 µM | > 100 µM | 90.2 µM | > 100 µM | > 100 µM | > 100 µM | 25 µM | > 100 µM | > 100 µM | > 100 µM | 94.4 µM | > 100 µM
